Results: PMC11211886 (Frontiers in Pharmacology, 2024)
Several values for one entry are separate records, joined by “and”; a condition that tells them apart may be missing. Identical values can stand only once.

Legend:
[1] = Whole blood-to-plasma partition, dog blood; type: in vitro ADME
Method: The whole blood and plasma samples were incubated at 37°C for up to 1 h. Serial samples (150 µL) were collected at different time points (0, 10, and 60 min) and transferred into new tubes. The whole blood samples were then centrifuged at 1700 g for 15 min to harvest plasma.

CYP2E1 = target: T1, CYP2E1 (Homo sapiens, UniProt P05181); experiment: Reversible CYP inhibition in HLM, CYP2E1 (chlorzoxazone); type: in vitro ADME; details: for enzyme activity remaining: CYP2E1, HLM
T1 construct: tissue Life Technologies (Durham, NC, USA); host or cells: human liver microsomes
Method: (§1) The markers used to determine the activities of CYP isoforms were phenacetin O-deethylation for CYP1A2 (probe substrate: 50 µM phenacetin), bupropion hydroxylation for CYP2B6 (probe substrate: 70 µM bupropion), paclitaxel 6α-hydroxylation for CYP2C8 (probe substrate: 10 µM paclitaxel), diclofenac 4′-hydroxylation for CYP2C9 (probe substrate: 5 µM diclofenac), S-(+)-mephenytoin 4′-hydroxylation for CYP2C19 (probe substrate: 20 µM S-(+)-mephenytoin), dextromethorphan O-demethylation for CYP2D6 (probe substrate: 6 µM dextromethorphan), chlorzoxazone 6′-hydroxylation for CYP2E1 (probe substrate: 70 µM chlorzoxazone), and testosterone 6β-hydroxylation and midazolam 1′-hydroxylation for CYP3A4/5 (probe substrate: 45 µM testosterone and 5 µM midazolam). […] Alpha-naphthoflavone (0.04 µM), 2-phenyl-2-(1-piperidinyl)propane (5 µM), quercetin (1 µM), sulfaphenazole (0.5 µM), ticlopidine (4 µM), quinidine (0.2 µM), diethyldithiocarbamate (20 µM), and ketoconazole (0.05 µM) were used as positive inhibitors of CYP1A2, 2B6, 2C8, 2C9, 2C19, 2D6, 2E1, and 3A4, respectively. The vehicle control was prepared in the same composition as inhibitor solutions but free of inhibitors. The concentrations of probe substrates were close to Km values that were determined in-house and within the range recommended by the FDA ([Huang et al., 2007]). Reaction mixtures were incubated at 37°C for 5, 20, or 30 min, depending on the probe substrates of CYP isoforms. The reactions were terminated by adding cold acetonitrile containing IS, and the terminated incubation mixtures were centrifuged at 3,000 g for 10 min before LC-MS/MS analysis.

CYP2C8 [2] = target: T2, CYP2C8 (Homo sapiens, UniProt P10632); experiment: Reversible CYP inhibition in HLM, CYP2C8 (paclitaxel); type: in vitro ADME; details: for enzyme activity remaining: CYP2C8, HLM
T2 construct: tissue Life Technologies (Durham, NC, USA); host or cells: human liver microsomes
T2 sequence (P10632 1-490): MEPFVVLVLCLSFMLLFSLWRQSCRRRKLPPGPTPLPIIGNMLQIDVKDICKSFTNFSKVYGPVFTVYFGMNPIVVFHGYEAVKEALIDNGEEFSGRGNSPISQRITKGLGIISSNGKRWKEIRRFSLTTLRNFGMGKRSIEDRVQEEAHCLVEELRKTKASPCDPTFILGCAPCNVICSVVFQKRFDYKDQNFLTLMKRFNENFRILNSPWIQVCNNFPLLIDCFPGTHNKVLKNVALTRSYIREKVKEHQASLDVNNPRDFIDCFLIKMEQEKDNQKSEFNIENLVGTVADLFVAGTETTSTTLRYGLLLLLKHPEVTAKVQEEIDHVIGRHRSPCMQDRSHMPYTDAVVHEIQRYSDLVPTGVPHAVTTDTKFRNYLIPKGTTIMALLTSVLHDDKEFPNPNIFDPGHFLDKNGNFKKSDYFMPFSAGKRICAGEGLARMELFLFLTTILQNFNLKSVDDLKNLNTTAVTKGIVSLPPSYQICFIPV
Method: as §1

[3] = male, ICR, mouse, in vivo, iv
Method: All intravenous and oral dose formulations were analyzed by liquid chromatography coupled with tandem mass spectrometry (LC-MS/MS) to confirm test article concentration and determine formulation stability.
Animals had free access to food, and water was allowed ad libitum. […] The blood samples were collected with sodium heparin as an anticoagulant. The plasma samples were obtained from blood samples by centrifugation and stored at −80°C until analysis.
A total of eighteen mice were divided into intravenous (IV) and oral (PO) administration groups, with nine animals in each group. The mice were fasted overnight with free access to water before dosing. […] After the mice were anesthetized with isoflurane, approximately 100 μL of whole blood was collected through the retro-orbital sinus and transferred to a 1.5 mL tube containing sodium heparin. The gathered blood samples were kept on ice until centrifugation. Plasma samples were harvested by centrifugation at 1,500 g for 10 min at 4°C.
Pharmacokinetic parameters were calculated by a non-compartmental method using Thermo Kinetica® (Version 5.1 SP1, Thermo Electron Corporation, Philadelphia, Pennsylvania, United States). The area under the plasma concentration–time curve from time zero to the time of the last measurable sample (AUC0-t) or the plasma concentration–time curve from time zero to infinity (AUC0-inf) was calculated using the linear trapezoidal method.

CYP2C8 [4] = target: T2, CYP2C8; experiment: Time-dependent CYP inhibition in HLM, CYP2C8; type: in vitro ADME; details: 10 μM, 30 min pre-incubation with NADPH
Method: (§2) The procedure of time-dependent CYP inhibition was similar to that used for CYP reversible inhibition, as mentioned above, except that a pre-incubation step was added. […] Another appropriate volume of the NADPH-regenerating system and probe substrate were added to initiate the CYP isoform enzyme activity test step. For this step, the incubation period was 10 min, except for CYP2B6, CYP2C8, and CYP3A4/5 (probe substrate: midazolam), which was 3 min to make sure the reaction was under initial linear rates. After incubation for the designated time periods at 37°C, the ice-cold acetonitrile containing IS was added to quench the reaction. […] (Ainactivator/[…] represents the enzyme activity remaining due to the inhibition by the diluted inactivator in the enzyme activity test step, and (Ainactivator/[…] represents the remaining enzyme activity due to pre-incubation loss plus inhibition by the diluted inactivator in the enzyme activity test step.

plasma proteins = experiment: Plasma protein binding (RED), monkey plasma; type: in vitro ADME
Method: The plate containing plasma and buffer was equilibrated for 6 h in a 37°C water shaking bath. After incubation, aliquots of buffer and plasma (20 µL) on both sides were collected and precipitated using organic solvents. […] The post-dialysis recovery of amdizalisib was also measured.

CYP2B6 = target: T3, CYP2B6 (Homo sapiens, UniProt P20813); experiment: Time-dependent CYP inhibition in HLM, CYP2B6; type: in vitro ADME; details: 10 μM, 30 min pre-incubation with NADPH
T3 construct: tissue Life Technologies (Durham, NC, USA); host or cells: human liver microsomes
T3 sequence (P20813 1-491): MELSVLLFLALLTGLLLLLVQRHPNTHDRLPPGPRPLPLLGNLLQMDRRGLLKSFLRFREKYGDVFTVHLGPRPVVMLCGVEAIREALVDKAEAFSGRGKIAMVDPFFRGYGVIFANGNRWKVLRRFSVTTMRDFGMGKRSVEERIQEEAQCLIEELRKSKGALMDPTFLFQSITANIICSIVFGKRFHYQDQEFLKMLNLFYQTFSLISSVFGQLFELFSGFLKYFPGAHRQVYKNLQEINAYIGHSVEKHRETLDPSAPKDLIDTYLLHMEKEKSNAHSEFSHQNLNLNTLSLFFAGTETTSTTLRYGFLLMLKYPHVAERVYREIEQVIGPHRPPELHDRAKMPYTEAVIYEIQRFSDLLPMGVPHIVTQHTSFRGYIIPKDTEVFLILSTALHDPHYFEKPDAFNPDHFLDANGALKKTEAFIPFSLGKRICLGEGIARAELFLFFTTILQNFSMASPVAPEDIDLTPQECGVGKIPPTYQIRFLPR
Method: as §2

[5] = HLM, reversible, without pre-incubation

T1 sequence (P05181 whole entry): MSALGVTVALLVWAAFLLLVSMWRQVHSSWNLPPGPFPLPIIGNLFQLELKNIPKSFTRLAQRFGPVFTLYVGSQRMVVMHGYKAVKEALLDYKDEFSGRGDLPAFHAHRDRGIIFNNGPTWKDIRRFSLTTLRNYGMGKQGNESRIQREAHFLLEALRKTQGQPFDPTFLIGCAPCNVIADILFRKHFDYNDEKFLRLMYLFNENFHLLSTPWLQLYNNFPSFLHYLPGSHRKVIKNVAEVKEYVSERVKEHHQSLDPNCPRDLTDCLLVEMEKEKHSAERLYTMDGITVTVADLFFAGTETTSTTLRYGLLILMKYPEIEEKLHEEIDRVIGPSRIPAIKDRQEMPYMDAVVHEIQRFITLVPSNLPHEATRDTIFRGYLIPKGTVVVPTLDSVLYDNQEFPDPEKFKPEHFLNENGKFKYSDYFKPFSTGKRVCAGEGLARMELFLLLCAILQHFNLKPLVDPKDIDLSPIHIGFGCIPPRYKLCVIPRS

Question: For `C[C@H](Nc1ncnc(N)c1C#N)c1cc2ncc(Cl)n2nc1-c1ccccc1` [Amdizalisib], which RB ([1]; dog blood, 1 μM, 0 min) is on record?
Answer: 1.01

Question: And the fuB ([1]; dog, 0 min, 1 µM)?
Answer: 10.9%

Question: And the fup ([1]; dog, 1 µM)?
Answer: 0.109

Question: What about the RB ([1]; dog, 10 min, 1 µM) of the same molecule?
Answer: 0.874

Question: What about the fuB ([1]; dog, 10 min, 1 µM) of the same molecule?
Answer: 12.5%

Question: What about the RB ([1]; dog, 60 min, 1 µM) of the same molecule?
Answer: 0.968

Question: What about the fuB ([1]; dog, 60 min, 1 µM) of the same molecule?
Answer: 11.3%

Question: And the enzyme activity remaining (CYP2E1; 0.08 μM)?
Answer: 99.7% and 97.6%

Question: What about the enzyme activity remaining (CYP2E1; 0.4 μM) of the same molecule?
Answer: 99.0% and 96.9%

Question: What about the enzyme activity remaining (CYP2E1; 2 μM) of the same molecule?
Answer: 101% and 95.5%

Question: What about the enzyme activity remaining (CYP2E1; 10 μM) of the same molecule?
Answer: 105% and 97.6%

Question: And the enzyme activity remaining (CYP2E1; 50 μM)?
Answer: 118% and 113%

Question: What about the IC50 (CYP2E1; [5]) of the same molecule?
Answer: > 50 µM

Question: What about the enzyme activity remaining (CYP2C8 [2]; 0.08 μM) of the same molecule?
Answer: 110% and 105%

Question: What about the enzyme activity remaining (CYP2C8 [2]; 0.4 μM) of the same molecule?
Answer: 105% and 109%

Question: And the enzyme activity remaining (CYP2C8 [2]; 2 μM)?
Answer: 98.8% and 104%

Question: And the enzyme activity remaining (CYP2C8 [2]; 10 μM)?
Answer: 67.3% and 76.5%

Question: What about the enzyme activity remaining (CYP2C8 [2]; 50 μM) of the same molecule?
Answer: 38.0% and 39.6%

Question: What about the IC50 (CYP2C8 [2]; [5]) of the same molecule?
Answer: 30.4 µM

Question: And the “CL as % of the hepatic blood flow” value [3]?
Answer: 16.3%

Question: What about the “activity loss of CYP2C8” value (CYP2C8 [4]) of the same molecule?
Answer: less than 10%

Question: And the “Binding fraction to plasma proteins, Monkey” value (from here on “Binding fraction”) (plasma proteins; 0.1 µM)?
Answer: 90.6 ± 4.56%

Question: What about the “Binding fraction” value (plasma proteins; 1 µM) of the same molecule?
Answer: 89.7 ± 0.22%

Question: And the “Binding fraction” value (plasma proteins; 20 µM)?
Answer: 88.9 ± 0.38%

Question: What about the “activity loss of CYP2B6” value (CYP2B6) of the same molecule?
Answer: less than 10%
